In patent US9434711B2 (Janssen Pharmaceutica, NV, priority 2007, dated 2016):
pIC50: −log10 of the molar value.

Molecular target: canine TRPM8 (Canis lupus familiaris, UniProt Q1A7N1)
Test: In Vitro Canine TRPM8 Functional Assay (Ca2+ fluorescence, icilin activation)
Assay type: cell-based
Conditions: for inhibition at 0.2 µM / % Inh @ 0.2 (μM): compound at 0.2 μM, canine TRPM8, icilin activation; for inhibition at 0.2 µM: read-out: % Inh @ 0.2; for pIC50: HEK293 cells stably expressing canine TRPM8, icilin activation, eight-point dose-response, read-out: IC50
Method in brief: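 Eight-point dose-response curves in quadruplicate gave EC50 or IC50 values from a Ca2+-sensitive dye assay in HEK293 cells stably carrying canine TRPM8. Icilin, dosed near its 80% maximal level, followed a 5 min compound exposure.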

canine TRPM8, sequence (Q1A7N1 1-1104): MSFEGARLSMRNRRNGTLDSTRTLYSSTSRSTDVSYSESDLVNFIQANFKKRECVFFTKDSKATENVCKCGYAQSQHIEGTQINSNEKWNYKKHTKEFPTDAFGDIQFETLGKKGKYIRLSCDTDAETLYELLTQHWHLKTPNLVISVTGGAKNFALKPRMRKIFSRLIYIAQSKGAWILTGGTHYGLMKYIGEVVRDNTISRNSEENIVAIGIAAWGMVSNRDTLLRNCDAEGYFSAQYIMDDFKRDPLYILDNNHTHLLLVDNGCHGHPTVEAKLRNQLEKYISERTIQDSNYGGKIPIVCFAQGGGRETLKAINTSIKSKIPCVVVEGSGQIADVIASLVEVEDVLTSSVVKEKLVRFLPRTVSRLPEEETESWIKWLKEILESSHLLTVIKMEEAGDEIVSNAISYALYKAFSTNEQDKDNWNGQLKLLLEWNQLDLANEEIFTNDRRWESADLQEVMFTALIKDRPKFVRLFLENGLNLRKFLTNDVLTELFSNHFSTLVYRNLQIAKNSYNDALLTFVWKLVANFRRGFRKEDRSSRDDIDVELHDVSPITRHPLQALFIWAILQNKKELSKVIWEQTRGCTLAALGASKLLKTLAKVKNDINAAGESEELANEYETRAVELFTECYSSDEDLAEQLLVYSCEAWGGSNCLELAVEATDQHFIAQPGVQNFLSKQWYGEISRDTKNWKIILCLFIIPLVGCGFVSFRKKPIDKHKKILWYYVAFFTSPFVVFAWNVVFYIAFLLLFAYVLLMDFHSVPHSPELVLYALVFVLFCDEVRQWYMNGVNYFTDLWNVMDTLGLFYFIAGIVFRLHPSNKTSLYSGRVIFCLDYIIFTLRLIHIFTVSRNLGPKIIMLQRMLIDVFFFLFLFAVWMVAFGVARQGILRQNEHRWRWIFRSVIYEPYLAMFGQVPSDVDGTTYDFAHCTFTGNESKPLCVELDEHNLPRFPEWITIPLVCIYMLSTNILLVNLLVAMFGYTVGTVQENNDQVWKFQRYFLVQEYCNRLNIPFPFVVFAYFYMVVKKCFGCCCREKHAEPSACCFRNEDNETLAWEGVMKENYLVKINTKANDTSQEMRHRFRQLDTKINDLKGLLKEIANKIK

| Structure (SMILES) | inhibition at 0.2 µM | pIC50 | % Inh @ 0.2 (μM) |
| --- | --- | --- | --- |
| NS(=O)(=O)N(CCC(F)(F)F)c1sc2ccccc2c1Br [Compound 304, N-(3-Bromo-benzo[b]thiophen-2-yl)-N-(3,3,3-trifluoro-propyl)-sulfamide] | 29% |  |  |
| O=C(O)c1cccc(S(=O)(=O)N(Cc2ccc(F)c(C(F)(F)F)c2)c2sc3ccccc3c2Cl)c1 [Compound 307, N-(3-Chloro-benzo[b]thiophen-2-yl)-N-(4-fluoro-3-trifluoromethyl-benzyl)-3-carboxy-benzenesulfonamide] | 101% | 7.82 |  |
| CC(=O)c1ccc(S(=O)(=O)N(Cc2ccc(F)c(C(F)(F)F)c2)c2cc3ccccc3s2)cc1 [Compound 308, N-(Benzo[b]thiophen-2-yl)-N-(4-fluoro-3-trifluoromethyl-benzyl)-4-acetyl-benzenesulfonamide] | 92% | 7.16 |  |
| CNS(=O)(=O)N(Cc1ccc(F)c(C(F)(F)F)c1)c1sc2ccccc2c1Cl [Compound 309, N-(3-Chloro-benzo[b]thiophen-2-yl)-N-(4-fluoro-3-trifluoromethyl-benzyl)-N′-methyl-sulfamide] | 93% | 7.26 |  |
| O=S(=O)(c1cccnc1Cl)N(Cc1ccc(F)c(C(F)(F)F)c1)c1cc2ccccc2s1 [Compound 310, N-(Benzo[b]thiophen-2-yl)-N-(4-fluoro-3-trifluoromethyl-benzyl)-2-chloro-pyridin-3-ylsulfonamide] | 69% |  |  |
| O=S(=O)(c1ccc(Cl)nc1)N(Cc1ccc(F)c(C(F)(F)F)c1)c1cc2ccccc2s1 [Compound 311, N-(Benzo[b]thiophen-2-yl)-N-(4-fluoro-3-trifluoromethyl-benzyl)-2-chloro-pyridin-5-ylsulfonamide] | 82% | 6.83 |  |
| CC(=O)c1ccc(S(=O)(=O)N(Cc2ccc(F)c(C(F)(F)F)c2)c2sc3ccccc3c2Br)cc1 [Compound 312, N-(3-Bromo-benzo[b]thiophen-2-yl)-N-(4-fluoro-3-trifluoromethyl-benzyl)-4-acetyl-benzenesulfonamide] | 102% | 7.96 |  |
| COC(=O)c1ccc(S(=O)(=O)N(Cc2ccc(F)c(C(F)(F)F)c2)c2sc3ccccc3c2C(C)=O)cc1 [Compound 313, N-(3-Acetyl-benzo[b]thiophen-2-yl)-N-(4-fluoro-3-trifluoromethyl-benzyl)-4-carbomethoxy-benzenesulfonamide] | 102% | 7.68 |  |
| CN(C)S(=O)(=O)N(Cc1ccc(F)c(C(F)(F)F)c1)c1cc2ccccc2s1 [Compound 315, N-(Benzo[b]thiophen-2-yl)-N-(4-fluoro-3-trifluoromethyl-benzyl)-N′,N′-dimethlysulfamide] |  | 7.19 | 99% |
| CC(C)(O)c1c(N(Cc2ccc(F)c(C(F)(F)F)c2)S(=O)(=O)c2ccccc2)sc2ccccc12 [Compound 316, N-(4-Fluoro-3-trifluoromethyl-benzyl)-N-[3-(1-hydroxy-1-methyl-ethyl)-benzo[b]thiophen-2-yl]-benzenesulfonamide] | 101% | 8.00 |  |
| O=S(=O)(c1cccnc1Cl)N(Cc1ccc(F)c(C(F)(F)F)c1)c1sc2ccccc2c1Br [Compound 319, N-(3-Bromo-benzo[b]thiophen-2-yl)-N-(4-fluoro-3-trifluoromethyl-benzyl)-2-chloro-pyridin-3-ylsulfonamide] | 100% | 7.62 |  |
| O=S(=O)(c1cccnc1)N(Cc1ccc(C(F)(F)F)c(F)c1)c1sc2ccccc2c1Br [Compound 322, N-(3-Bromo-benzo[b]thiophen-2-yl)-N-(3-fluoro-4-trifluoromethyl-benzyl)-pyridin-3-ylsulfonamide] | 99% | 8.00 |  |
| O=S(=O)(c1cccnc1)N(Cc1ccc(OC(F)(F)F)cc1)c1sc2ccccc2c1Br [Compound 323, N-(3-Bromo-benzo[b]thiophen-2-yl)-N-(4-trifluoromethoxy-benzyl)-pyridin-3-ylsulfonamide] | 102% | 8.00 |  |
| O=S(=O)(c1ccccc1)N(Cc1ccc(OC(F)(F)F)cc1)c1sc2ccccc2c1C(F)(F)F [Compound 325, N-(3-Trifluoromethyl-benzo[b]thiophen-2-yl)-N-(4-trifluoromethoxy-benzyl)-benzenesulfonamide] | 102% | 8.30 |  |
| Cc1c(N(Cc2ccc(F)c(C(F)(F)F)c2)S(=O)(=O)c2ccc(-c3cc(C(F)(F)F)nn3C)s2)sc2ccccc12 [Compound 326, N-(3-Methyl-benzo[b]thiophen-2-yl)-N-(4-fluoro-3-trifluoromethyl-benzyl)-5-(2-methyl-5-trifluoromethyl-2H-pyrazol-3-yl)-thien-2-ylsulfonamide] | 14% |  |  |
| COC(=O)c1ccc(S(=O)(=O)N(Cc2ccc(F)c(C(F)(F)F)c2)c2sc3ccccc3c2C)o1 [Compound 327, N-(3-Methyl-benzo[b]thiophen-2-yl)-N-(4-fluoro-3-trifluoromethyl-benzyl)-5-carbomethoxy-furan-2-yl-sulfonamide] | 97% | 7.43 |  |

Other lines, results leading:

| inhibition at 0.2 µM | pIC50 | % Inh @ 0.2 (μM) | Structure (SMILES) |
| --- | --- | --- | --- |
| 97% | 7.92 |  | Cc1c(N(Cc2ccc(F)c(C(F)(F)F)c2)S(=O)(=O)c2cccc(C(=O)O)c2)sc2ccccc12 [Compound 305, N-(3-Methyl-benzo[b]thiophen-2-yl)-N-(4-fluoro-3-trifluoromethyl-benzyl)-3-carboxy-benzenesulfonamide] |
| 102% | 8.00 |  | CC(=O)c1c(N(Cc2ccc(F)c(C(F)(F)F)c2)S(=O)(=O)c2ccccc2)sc2ccccc12 [Compound 314, N-(3-Acetyl-benzo[b]thiophen-2-yl)-N-(4-fluoro-3-trifluoromethyl-benzyl)-benzenesulfonamide] |
|  | 7.77 | 102% | CN(C)S(=O)(=O)N(Cc1ccc(F)c(C(F)(F)F)c1)c1sc2ccccc2c1Br [Compound 317, N-(3-Bromo-benzo[b]thiophen-2-yl)-N-(4-fluoro-3-trifluoromethyl-benzyl)-N′,N′-dimethlysulfamide] |
| 101% | 7.82 |  | CC(=O)c1c(N(Cc2ccc(F)c(C(F)(F)F)c2)S(=O)(=O)c2ccc(C(=O)O)cc2)sc2ccccc12 [Compound 318, N-(3-Acetyl-benzo[b]thiophen-2-yl)-N-(4-fluoro-3-trifluoromethyl-benzyl)-4-carboxy-benzenesulfonamide] |
| 100% | 8.00 |  | O=S(=O)(c1ccc(Cl)nc1)N(Cc1ccc(F)c(C(F)(F)F)c1)c1sc2ccccc2c1Br [Compound 320, N-(3-Bromo-benzo[b]thiophen-2-yl)-N-(4-fluoro-3-trifluoromethyl-benzyl)-2-chloro-pyridin-5-ylsulfonamide] |
| 81% | 7.15 |  | O=S(=O)(c1cccnc1Cl)N(Cc1ccc(F)c(C(F)(F)F)c1)c1sc2ccccc2c1Cl [Compound 321, N-(3-Chloro-benzo[b]thiophen-2-yl)-N-(4-fluoro-3-trifluoromethyl-benzyl)-2-chloro-pyridin-3-ylsulfonamide] |
| 100% | 7.82 |  | O=S(=O)(c1cccnc1)N(Cc1cc(Cl)ccc1F)c1sc2ccccc2c1Br [Compound 324, N-(3-Bromo-benzo[b]thiophen-2-yl)-N-(2-fluoro-5-chloro-benzyl)-pyridin-3-ylsulfonamide] |
